Measurements: PMC3639963, “A New Class of Small Molecule Inhibitor of BMP Signaling” (PLoS ONE, 2013)

Legend:
Assay in all cases: Nanosyn kinase profiling
Format in all cases: biochemical
Details in all cases: read-out: Percentage inhibition; for inhibition at 0.1 µM: 0.1 µM inhibitor; for inhibition at 1 µM: 1 µM inhibitor
[1] = target: T1, CDK4/cycD (Homo sapiens, UniProt P11802)
T1 construct: purchased Nanosyn (enzymatic panel); SGC in-house recombinant human kinases (DSF panel); Invitrogen (ALK1-6)
Method in brief: (§1)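 Percent inhibition of each kinase was measured with the inhibitor at 0.1 µM and at 1 µM, as part of a 200-kinase human selectivity panel.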

[2] = target: T2, ROS (Homo sapiens, UniProt P08922)
T2 construct: purchased Nanosyn (enzymatic panel); SGC in-house recombinant human kinases (DSF panel); Invitrogen (ALK1-6)
Method in brief: as §1

[3] = target: T3, SGK3 (Homo sapiens, UniProt Q96BR1)
T3 construct: purchased Nanosyn (enzymatic panel); SGC in-house recombinant human kinases (DSF panel); Invitrogen (ALK1-6)
T3 sequence (Q96BR1 1-496): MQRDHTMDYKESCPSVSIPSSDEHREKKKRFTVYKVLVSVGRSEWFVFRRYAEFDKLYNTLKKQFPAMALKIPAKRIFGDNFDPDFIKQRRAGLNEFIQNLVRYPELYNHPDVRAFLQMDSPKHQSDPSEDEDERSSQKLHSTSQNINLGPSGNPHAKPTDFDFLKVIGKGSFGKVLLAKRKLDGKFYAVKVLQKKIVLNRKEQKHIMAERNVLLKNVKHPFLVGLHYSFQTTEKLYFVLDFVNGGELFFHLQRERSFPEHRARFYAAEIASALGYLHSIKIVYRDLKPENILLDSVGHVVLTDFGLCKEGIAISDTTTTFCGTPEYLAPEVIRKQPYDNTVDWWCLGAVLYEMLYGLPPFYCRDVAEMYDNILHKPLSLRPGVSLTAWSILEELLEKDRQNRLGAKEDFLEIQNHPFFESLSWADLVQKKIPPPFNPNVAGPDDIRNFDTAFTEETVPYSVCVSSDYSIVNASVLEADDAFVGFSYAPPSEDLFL
Method in brief: as §1

[4] = target: T4, PI3-K-α (Homo sapiens, UniProt P42336)
T4 construct: purchased Nanosyn (enzymatic panel); SGC in-house recombinant human kinases (DSF panel); Invitrogen (ALK1-6)
Method in brief: as §1

[5] = target: T5, CK1γ3 (Homo sapiens, UniProt Q9Y6M4)
T5 construct: purchased Nanosyn (enzymatic panel); SGC in-house recombinant human kinases (DSF panel); Invitrogen (ALK1-6)
Method in brief: as §1

[6] = target: T6, PKCη (Homo sapiens, UniProt P24723)
T6 construct: purchased Nanosyn (enzymatic panel); SGC in-house recombinant human kinases (DSF panel); Invitrogen (ALK1-6)
Method in brief: as §1

[7] = target: T7, BLK (Homo sapiens, UniProt P51451)
T7 construct: purchased Nanosyn (enzymatic panel); SGC in-house recombinant human kinases (DSF panel); Invitrogen (ALK1-6)
Method in brief: as §1

[8] = target: T8, CLK2 (Homo sapiens, UniProt P49760)
T8 construct: purchased Nanosyn (enzymatic panel); SGC in-house recombinant human kinases (DSF panel); Invitrogen (ALK1-6)
Method in brief: as §1

[9] = target: T9, MAPKAPK2 (Homo sapiens, UniProt P49137)
T9 construct: purchased Nanosyn (enzymatic panel); SGC in-house recombinant human kinases (DSF panel); Invitrogen (ALK1-6)
Method in brief: as §1

[10] = target: T10, LRRK2 (Homo sapiens, UniProt Q5S007)
T10 construct: purchased Nanosyn (enzymatic panel); SGC in-house recombinant human kinases (DSF panel); Invitrogen (ALK1-6)
Method in brief: as §1

[11] = target: T11, MSK1 (Homo sapiens, UniProt O75582)
T11 construct: purchased Nanosyn (enzymatic panel); SGC in-house recombinant human kinases (DSF panel); Invitrogen (ALK1-6)
Method in brief: as §1

[12] = target: T12, EPHA4 (Homo sapiens, UniProt P54764)
T12 construct: purchased Nanosyn (enzymatic panel); SGC in-house recombinant human kinases (DSF panel); Invitrogen (ALK1-6)
Method in brief: as §1

[13] = target: T13, LYNA (Homo sapiens, UniProt P07948)
T13 construct: purchased Nanosyn (enzymatic panel); SGC in-house recombinant human kinases (DSF panel); Invitrogen (ALK1-6)
Method in brief: as §1

[14] = target: T14, EPHB2 (Homo sapiens, UniProt P29323)
T14 construct: purchased Nanosyn (enzymatic panel); SGC in-house recombinant human kinases (DSF panel); Invitrogen (ALK1-6)
T14 sequence (P29323 19-1055): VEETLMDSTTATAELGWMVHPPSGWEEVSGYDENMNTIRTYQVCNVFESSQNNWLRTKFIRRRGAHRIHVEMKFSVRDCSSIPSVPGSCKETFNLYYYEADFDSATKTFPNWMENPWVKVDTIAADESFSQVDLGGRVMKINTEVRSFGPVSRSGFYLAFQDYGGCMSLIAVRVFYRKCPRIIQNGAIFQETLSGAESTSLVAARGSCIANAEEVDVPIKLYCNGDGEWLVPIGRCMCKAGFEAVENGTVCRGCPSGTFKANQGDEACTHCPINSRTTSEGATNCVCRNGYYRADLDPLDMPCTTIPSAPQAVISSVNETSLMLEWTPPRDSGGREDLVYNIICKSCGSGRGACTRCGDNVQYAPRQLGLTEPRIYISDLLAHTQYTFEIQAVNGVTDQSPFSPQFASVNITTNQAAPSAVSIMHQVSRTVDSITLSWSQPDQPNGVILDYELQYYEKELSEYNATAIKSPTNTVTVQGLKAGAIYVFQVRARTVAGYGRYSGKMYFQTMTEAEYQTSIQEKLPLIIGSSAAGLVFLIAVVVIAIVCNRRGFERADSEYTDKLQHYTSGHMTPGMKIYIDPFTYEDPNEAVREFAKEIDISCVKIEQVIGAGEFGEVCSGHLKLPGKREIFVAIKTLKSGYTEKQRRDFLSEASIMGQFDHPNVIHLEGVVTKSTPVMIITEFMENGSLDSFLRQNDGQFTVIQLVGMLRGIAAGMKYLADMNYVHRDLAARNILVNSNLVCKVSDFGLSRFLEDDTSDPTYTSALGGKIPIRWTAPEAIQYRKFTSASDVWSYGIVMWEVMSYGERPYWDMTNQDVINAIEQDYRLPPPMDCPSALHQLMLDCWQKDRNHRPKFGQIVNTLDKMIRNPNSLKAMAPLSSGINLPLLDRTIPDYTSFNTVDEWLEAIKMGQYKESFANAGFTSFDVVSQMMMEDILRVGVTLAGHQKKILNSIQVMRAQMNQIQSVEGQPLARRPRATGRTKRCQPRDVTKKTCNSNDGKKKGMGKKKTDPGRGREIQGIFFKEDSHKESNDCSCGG
Method in brief: as §1

[15] = target: T15, MAPK3 (Homo sapiens, UniProt P27361)
T15 construct: purchased Nanosyn (enzymatic panel); SGC in-house recombinant human kinases (DSF panel); Invitrogen (ALK1-6)
Method in brief: as §1

T7 sequence (P51451 whole entry): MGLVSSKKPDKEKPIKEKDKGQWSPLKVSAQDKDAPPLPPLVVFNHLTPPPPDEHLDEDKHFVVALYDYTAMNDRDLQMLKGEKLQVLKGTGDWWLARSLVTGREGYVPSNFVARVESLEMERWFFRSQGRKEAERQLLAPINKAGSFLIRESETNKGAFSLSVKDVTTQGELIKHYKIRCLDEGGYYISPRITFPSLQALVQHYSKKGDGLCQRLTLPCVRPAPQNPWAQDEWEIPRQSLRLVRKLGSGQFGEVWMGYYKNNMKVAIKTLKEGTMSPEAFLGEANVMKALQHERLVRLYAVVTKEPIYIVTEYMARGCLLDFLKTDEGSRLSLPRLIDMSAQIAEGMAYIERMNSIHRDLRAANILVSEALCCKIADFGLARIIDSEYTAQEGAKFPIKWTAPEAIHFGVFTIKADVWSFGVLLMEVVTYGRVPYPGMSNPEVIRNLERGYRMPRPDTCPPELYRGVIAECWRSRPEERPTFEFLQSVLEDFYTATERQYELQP
T11 sequence (O75582 whole entry): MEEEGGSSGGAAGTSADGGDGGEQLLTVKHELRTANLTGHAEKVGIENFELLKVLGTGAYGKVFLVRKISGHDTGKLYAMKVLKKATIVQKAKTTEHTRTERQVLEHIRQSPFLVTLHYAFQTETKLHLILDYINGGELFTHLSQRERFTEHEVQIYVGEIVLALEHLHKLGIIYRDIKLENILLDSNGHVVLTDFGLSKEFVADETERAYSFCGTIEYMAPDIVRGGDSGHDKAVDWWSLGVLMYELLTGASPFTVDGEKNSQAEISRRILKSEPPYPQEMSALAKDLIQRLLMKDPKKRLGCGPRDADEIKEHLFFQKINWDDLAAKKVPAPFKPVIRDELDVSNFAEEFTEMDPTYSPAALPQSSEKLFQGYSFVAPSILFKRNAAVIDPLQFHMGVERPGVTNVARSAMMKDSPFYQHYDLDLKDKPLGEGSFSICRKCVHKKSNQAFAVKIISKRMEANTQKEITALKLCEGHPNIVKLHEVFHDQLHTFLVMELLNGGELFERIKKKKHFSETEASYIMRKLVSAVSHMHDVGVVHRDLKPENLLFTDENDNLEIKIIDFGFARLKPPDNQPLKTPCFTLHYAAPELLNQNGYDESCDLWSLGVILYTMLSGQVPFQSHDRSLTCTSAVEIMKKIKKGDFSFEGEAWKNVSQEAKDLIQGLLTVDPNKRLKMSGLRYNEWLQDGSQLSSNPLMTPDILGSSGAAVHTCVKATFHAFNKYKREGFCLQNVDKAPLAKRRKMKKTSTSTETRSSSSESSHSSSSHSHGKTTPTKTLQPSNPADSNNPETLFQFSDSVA
T12 sequence (P54764 20-986): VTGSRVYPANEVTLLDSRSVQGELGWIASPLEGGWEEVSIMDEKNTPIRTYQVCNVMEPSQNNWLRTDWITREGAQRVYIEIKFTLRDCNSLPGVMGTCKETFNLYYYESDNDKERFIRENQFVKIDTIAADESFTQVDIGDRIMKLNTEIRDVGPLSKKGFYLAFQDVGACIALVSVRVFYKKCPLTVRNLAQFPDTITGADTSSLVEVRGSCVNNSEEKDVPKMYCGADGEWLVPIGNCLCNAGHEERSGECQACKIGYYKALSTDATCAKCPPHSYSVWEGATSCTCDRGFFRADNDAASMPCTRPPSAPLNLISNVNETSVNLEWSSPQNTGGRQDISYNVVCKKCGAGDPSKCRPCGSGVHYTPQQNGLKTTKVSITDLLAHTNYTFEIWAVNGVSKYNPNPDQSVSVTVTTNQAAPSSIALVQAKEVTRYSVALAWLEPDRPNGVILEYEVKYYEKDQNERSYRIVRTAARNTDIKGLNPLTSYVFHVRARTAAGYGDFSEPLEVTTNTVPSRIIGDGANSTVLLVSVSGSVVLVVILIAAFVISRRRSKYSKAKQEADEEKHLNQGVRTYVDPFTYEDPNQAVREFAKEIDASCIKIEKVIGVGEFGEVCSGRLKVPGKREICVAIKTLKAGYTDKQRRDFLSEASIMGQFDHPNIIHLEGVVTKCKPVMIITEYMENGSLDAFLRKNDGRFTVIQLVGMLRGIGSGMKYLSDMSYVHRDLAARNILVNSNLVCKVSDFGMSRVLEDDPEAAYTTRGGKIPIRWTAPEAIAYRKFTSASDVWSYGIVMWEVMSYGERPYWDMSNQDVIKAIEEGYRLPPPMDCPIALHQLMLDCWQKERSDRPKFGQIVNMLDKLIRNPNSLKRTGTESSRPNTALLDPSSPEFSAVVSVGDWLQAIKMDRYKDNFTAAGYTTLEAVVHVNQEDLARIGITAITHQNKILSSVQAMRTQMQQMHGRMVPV
T2 sequence (P08922 28-2347): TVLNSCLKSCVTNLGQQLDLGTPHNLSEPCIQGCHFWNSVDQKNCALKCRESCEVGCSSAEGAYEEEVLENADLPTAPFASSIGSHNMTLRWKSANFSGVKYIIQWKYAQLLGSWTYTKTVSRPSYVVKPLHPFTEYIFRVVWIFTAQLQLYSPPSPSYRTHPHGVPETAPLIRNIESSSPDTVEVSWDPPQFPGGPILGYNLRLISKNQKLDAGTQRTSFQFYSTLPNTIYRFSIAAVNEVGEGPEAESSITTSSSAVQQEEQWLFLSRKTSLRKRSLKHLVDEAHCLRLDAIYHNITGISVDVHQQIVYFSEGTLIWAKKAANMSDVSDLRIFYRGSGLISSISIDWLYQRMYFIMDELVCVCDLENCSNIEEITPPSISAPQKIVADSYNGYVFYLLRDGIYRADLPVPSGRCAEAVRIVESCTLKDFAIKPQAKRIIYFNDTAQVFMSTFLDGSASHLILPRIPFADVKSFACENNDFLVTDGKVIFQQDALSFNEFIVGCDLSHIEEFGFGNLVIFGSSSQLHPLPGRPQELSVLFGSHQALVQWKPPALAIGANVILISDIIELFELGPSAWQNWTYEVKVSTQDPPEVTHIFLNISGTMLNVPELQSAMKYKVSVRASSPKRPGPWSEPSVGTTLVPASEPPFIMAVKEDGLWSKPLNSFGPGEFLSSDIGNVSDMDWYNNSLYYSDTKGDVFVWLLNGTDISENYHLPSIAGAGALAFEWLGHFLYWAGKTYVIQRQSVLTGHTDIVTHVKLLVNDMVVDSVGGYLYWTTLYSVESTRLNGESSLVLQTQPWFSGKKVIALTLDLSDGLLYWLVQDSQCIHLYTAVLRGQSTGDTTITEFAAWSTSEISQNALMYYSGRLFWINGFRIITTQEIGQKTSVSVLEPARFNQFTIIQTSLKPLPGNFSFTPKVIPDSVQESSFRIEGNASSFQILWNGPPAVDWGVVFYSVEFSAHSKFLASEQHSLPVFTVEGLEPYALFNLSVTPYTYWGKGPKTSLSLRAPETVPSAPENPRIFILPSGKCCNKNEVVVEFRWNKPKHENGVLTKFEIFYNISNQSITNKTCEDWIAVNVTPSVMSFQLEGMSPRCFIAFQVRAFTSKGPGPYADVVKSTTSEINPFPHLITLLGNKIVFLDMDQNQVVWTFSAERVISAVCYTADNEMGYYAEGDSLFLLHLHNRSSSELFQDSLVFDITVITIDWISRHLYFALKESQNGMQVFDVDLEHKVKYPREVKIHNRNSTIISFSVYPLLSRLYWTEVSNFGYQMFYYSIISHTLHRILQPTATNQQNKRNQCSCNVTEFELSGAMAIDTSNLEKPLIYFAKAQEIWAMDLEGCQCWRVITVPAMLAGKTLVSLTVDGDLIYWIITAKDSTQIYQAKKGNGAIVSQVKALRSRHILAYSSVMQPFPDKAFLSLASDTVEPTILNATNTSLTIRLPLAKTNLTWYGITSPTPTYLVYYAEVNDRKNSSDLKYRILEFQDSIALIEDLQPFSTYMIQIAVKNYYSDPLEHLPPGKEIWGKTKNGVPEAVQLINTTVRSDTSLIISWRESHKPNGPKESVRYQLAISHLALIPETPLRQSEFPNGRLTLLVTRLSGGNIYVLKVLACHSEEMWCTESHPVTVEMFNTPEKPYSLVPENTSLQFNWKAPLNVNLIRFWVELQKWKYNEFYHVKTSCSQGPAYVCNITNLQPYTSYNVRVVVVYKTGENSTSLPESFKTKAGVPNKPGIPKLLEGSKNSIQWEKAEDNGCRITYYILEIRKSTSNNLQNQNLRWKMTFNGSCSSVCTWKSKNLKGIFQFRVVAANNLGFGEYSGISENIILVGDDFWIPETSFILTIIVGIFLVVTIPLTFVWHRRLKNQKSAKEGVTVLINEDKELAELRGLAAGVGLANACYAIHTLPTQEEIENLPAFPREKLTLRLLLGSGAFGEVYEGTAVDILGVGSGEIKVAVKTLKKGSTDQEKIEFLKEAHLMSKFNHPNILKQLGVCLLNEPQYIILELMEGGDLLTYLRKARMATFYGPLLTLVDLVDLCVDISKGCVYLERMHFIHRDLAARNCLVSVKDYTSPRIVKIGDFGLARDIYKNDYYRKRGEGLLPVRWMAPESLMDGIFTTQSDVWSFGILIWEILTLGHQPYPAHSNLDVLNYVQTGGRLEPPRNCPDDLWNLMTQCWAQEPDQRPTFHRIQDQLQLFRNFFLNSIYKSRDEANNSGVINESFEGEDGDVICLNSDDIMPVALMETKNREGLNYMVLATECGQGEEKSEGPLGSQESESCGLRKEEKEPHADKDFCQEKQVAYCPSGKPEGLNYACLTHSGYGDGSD
T15 sequence (P27361 whole entry): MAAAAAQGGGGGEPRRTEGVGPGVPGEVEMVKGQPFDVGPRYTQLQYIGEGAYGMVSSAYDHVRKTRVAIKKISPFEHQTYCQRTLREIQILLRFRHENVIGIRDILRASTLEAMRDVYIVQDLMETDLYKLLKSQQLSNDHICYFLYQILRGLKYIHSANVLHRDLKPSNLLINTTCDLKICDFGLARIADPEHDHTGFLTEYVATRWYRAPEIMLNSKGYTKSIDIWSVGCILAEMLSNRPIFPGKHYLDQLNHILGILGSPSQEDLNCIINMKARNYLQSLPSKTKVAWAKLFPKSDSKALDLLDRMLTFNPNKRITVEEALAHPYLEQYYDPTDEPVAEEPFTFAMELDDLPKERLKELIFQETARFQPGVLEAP

Compound | inhibition at 0.1 µM [1] [%] | inhibition at 1 µM [1] [%] | inhibition at 0.1 µM [2] [%] | inhibition at 1 µM [2] [%] | inhibition at 0.1 µM [3] [%] | inhibition at 1 µM [3] [%] | inhibition at 0.1 µM [4] [%] | inhibition at 1 µM [4] [%] | inhibition at 0.1 µM [5] [%] | inhibition at 1 µM [5] [%] | inhibition at 0.1 µM [6] [%] | inhibition at 1 µM [6] [%] | inhibition at 0.1 µM [7] [%] | inhibition at 1 µM [7] [%] | inhibition at 0.1 µM [8] [%] | inhibition at 1 µM [8] [%] | inhibition at 0.1 µM [9] [%] | inhibition at 1 µM [9] [%] | inhibition at 0.1 µM [10] [%] | inhibition at 1 µM [10] [%] | also measured
COc1cc(-c2cc(-c3cccc(O)c3)cnc2N)cc(OC)c1OC [K02288, 3-[6-amino-5-(3,4,5-trimethoxy-phenyl)-pyridin-3-yl]-phenol] | 0.1 | 1.3 | 1.8 | 6.8 | -2 | -1 | 2.6 | 2 | 2.7 | 19 | -2 | -4 | 3.2 | 27 | 0 | 0 | -2 | -1 | 7.1 | 27 | inhibition at 0.1 µM [11]: -2%; inhibition at 1 µM [11]: -1%; inhibition at 0.1 µM [12]: -2%; inhibition at 1 µM [12]: 17%; inhibition at 0.1 µM [13]: 9.7%; inhibition at 1 µM [13]: 49%; inhibition at 0.1 µM [14]: 0%; inhibition at 1 µM [14]: 21%; inhibition at 0.1 µM [15]: 0%; inhibition at 1 µM [15]: -1%
c1ccc2c(-c3cnn4cc(-c5ccc(N6CCNCC6)cc5)cnc34)ccnc2c1 [LDN-193189] | 0.8 | 8.3 | 3.8 | 3.7 | 1.6 | 2.3 | 2.1 | 1.5 | 2.3 | 5.5 | 2.2 | -2 | 3.9 | 24 | 2.3 | 35 | 0.7 | 0 | 8.7 | 27 | inhibition at 0.1 µM [11]: 1.1%; inhibition at 1 µM [11]: 1.3%; inhibition at 0.1 µM [12]: 7.1%; inhibition at 1 µM [12]: 10%; inhibition at 0.1 µM [13]: 9.1%; inhibition at 1 µM [13]: 39%; inhibition at 0.1 µM [14]: 8.4%; inhibition at 1 µM [14]: 24%; inhibition at 0.1 µM [15]: 1.9%; inhibition at 1 µM [15]: -2%
